Data set [1] deals with SW-620. As to the kind of experiment: Antitumor activity in human SW620 cells xenografted nude mouse assessed as decrease in tumor volume at 2 mg/kg, ip after 21 days. Type of data set: functional. The arrangement: scale not given: the % may be the effect or the level left. The conditions noted are these: route intraperitoneal.
The subject of data set [2] is SW-620. As to the kind of experiment: Antitumor activity in human SW620 cells xenografted nude mouse assessed as decrease in tumor weight at 2 mg/kg, ip after 21 days. Type of data set: functional. The arrangement: scale not given: the % may be the effect or the level left. Particulars: route intraperitoneal. (A xenograft is tissue or cells of one species grown in another, often human tumour cells in immunodeficient mice.)

The test system of data set [3] is Mus musculus. Briefly: Toxicity in SW480 cells xenografted nude mouse assessed as change in body weight 2 mg/kg/day, ip after 21 days. The conditions noted are these: in vivo, 504 h. More on the design: route intraperitoneal. The class given is organism-based.
Data set [4] concerns SW-620. As to the kind of experiment: Antitumor activity in human SW620 cells xenografted nude mouse assessed as decrease in tumor volume at 5 mg/kg/day, po after 5 days. Type of data set: functional.
In data set [5] the test system is SW-620. As to the kind of experiment: Antitumor activity in human SW620 cells xenografted nude mouse assessed as decrease in tumor volume at 5 mg/kg/day, po after 10 days. Type of data set: functional.
Data set [6] relates to SW-620. As to the kind of experiment: Antitumor activity in human SW620 cells xenografted nude mouse assessed as decrease in tumor volume at 5 mg/kg/day, po after 16 days. Type of data set: functional.
Data set [7] deals with SW-620. Briefly: Antitumor activity in human SW620 cells xenografted nude mouse assessed as decrease in tumor volume at 5 mg/kg/day, po after 23 days. The class given is functional.
The subject of data set [8] is SW-620. As to the kind of experiment: Antitumor activity in human SW620 cells xenografted nude mouse assessed as decrease in tumor volume at 5 mg/kg/day, po after 27 days. Type of data set: functional.
Data set [9] has as its system Mus musculus. Briefly: Toxicity in SW480 cells xenografted nude mouse assessed as change in body weight 5 mg/kg/day, ip after 21 days. Type of data set: organism-based. The arrangement: route intraperitoneal. The conditions noted are these: in vivo, 504 h.
The subject of data set [10] is SW-620. Briefly: Antitumor activity in human SW620 cells xenografted nude mouse assessed as decrease in tumor volume at 5 mg/kg/day, ip after 21 days. Type of data set: functional. Particulars: route intraperitoneal.
The subject of data set [11] is SW-620. As to the kind of experiment: Antitumor activity in human SW620 cells xenografted nude mouse assessed as decrease in tumor weight at 5 mg/kg/day, ip after 21 days. Type of data set: functional. More on the design: scale not given: the % may be the effect or the level left. The conditions noted are these: route intraperitoneal.
Data set [12] has as its system SW-620. Briefly: Antitumor activity against human SW620 cells at 30 uM after 24 hrs. The class given is functional. Particulars: SW-620, 24 h.
In data set [13] the test system is SW-620. Briefly: Antitumor activity against human SW620 cells at 30 uM after 48 hrs. Type of data set: functional. The conditions noted are these: SW-620, 48 h.
Data set [14] has as its system SW-620. Briefly: Antitumor activity against human SW620 cells at 30 uM after 72 hrs. The class given is functional. The conditions noted are these: SW-620, 72 h.
In data set [15] the test system is SW-620. Briefly: Antitumor activity against human SW620 cells at 30 uM after 96 hrs. Type of data set: functional. The conditions noted are these: SW-620, 96 h.
Data set [16] deals with SW-620. Briefly: Antitumor activity against human SW620 cells at 50 uM after 24 hrs. Particulars: SW-620, 24 h. The class given is functional.
Data set [17] has as its system SW-620. As to the kind of experiment: Antitumor activity against human SW620 cells at 50 uM after 48 hrs. Type of data set: functional. Particulars: SW-620, 48 h.
Data set [18] concerns SW-620. As to the kind of experiment: Antitumor activity against human SW620 cells at 50 uM after 72 hrs. The conditions noted are these: SW-620, 72 h. Type of data set: functional.
Data set [19] relates to SW-620. Briefly: Antitumor activity against human SW620 cells at 50 uM after 96 hrs. Type of data set: functional. Particulars: SW-620, 96 h.
In data set [20] the test system is SW-620. Briefly: Antitumor activity against human SW620 cells at 100 uM after 24 hrs. Type of data set: functional. Particulars: SW-620, 24 h.
Data set [21] concerns SW-620. Briefly: Antitumor activity against human SW620 cells at 100 uM after 48 hrs. Type of data set: functional. The conditions noted are these: SW-620, 48 h.
In data set [22] the test system is SW-620. Briefly: Antitumor activity against human SW620 cells at 100 uM after 72 hrs. Type of data set: functional. Particulars: SW-620, 72 h.
For data set [23], the system named is SW-620. Briefly: Antitumor activity against human SW620 cells at 100 uM after 96 hrs. Particulars: SW-620, 96 h. The class given is functional.
Another data set has as its system HCT-116. As to the kind of experiment: Antiproliferative activity against human HCT 116 cells after 48 hrs by MTS assay. The class given is functional, cell-based. Background: Formazan colour is commonly taken as a measure of viable cells.
The next data set has as its system HT-29. Briefly: Antiproliferative activity against human HT-29 cells after 48 hrs by MTS assay. The class given is functional, cell-based.
A further data set has as its system DLD-1. Briefly: Antiproliferative activity against human DLD1 cells after 48 hrs by MTS assay. The class given is functional, cell-based.
For the next data set, the system named is MCF7. As to the kind of experiment: Antiproliferative activity against human MCF7 cells after 48 hrs by MTS assay. Type of data set: functional, cell-based.
The subject of data set [24] is MDA-MB-231. As to the kind of experiment: Antiproliferative activity against human MDA-MB-231 cells after 48 hrs by MTS assay. The class given is functional, cell-based.
The next data set concerns PC-3. As to the kind of experiment: Antiproliferative activity against human PC-3 cells after 48 hrs by MTS assay. The class given is functional, cell-based.
Another data set relates to K562. As to the kind of experiment: Antiproliferative activity against human K-562 cells after 48 hrs by MTS assay. Type of data set: functional, cell-based.
The subject of data set [25] is SW-620. As to the kind of experiment: Cell cycle arrest in human SW620 cells assessed as accumulation at G1 phase at 50 uM after 72 hrs by FACS analysis. Type of data set: functional. A general note: In flow cytometry, cells or beads pass a laser one at a time.
The subject of data set [26] is SW-620. As to the kind of experiment: Cell cycle arrest in human SW620 cells assessed as accumulation at S phase at 50 uM after 72 hrs by FACS analysis. Type of data set: functional.
The subject of data set [27] is SW-620. As to the kind of experiment: Cell cycle arrest in human SW620 cells assessed as accumulation at G2/M phase at 50 uM after 72 hrs by FACS analysis. The class given is functional.
In data set [28] the test system is SW-620. As to the kind of experiment: Induction of apoptosis in human SW620 cells assessed as chromosomal DNA fragmentation at […] after 48 hrs by FACS analysis. Type of data set: functional, cell-based.
Data set [29] deals with MDA-MB-231. As to the kind of experiment: Induction of apoptosis in human MDA-MB-231 cells assessed as ROS production after 24 hrs. The class given is functional, cell-based.
Data set [30] concerns MDA-MB-231. As to the kind of experiment: Induction of apoptosis in human MDA-MB-231 cells assessed as morphological changes in presence of N-acetyl-cysteine after 24 hrs. Type of data set: functional, cell-based.
Data set [31] deals with SW-620. Briefly: Cell cycle arrest in human SW620 cells assessed as accumulation at subG1 phase at 50 uM after 72 hrs by FACS analysis. Type of data set: functional.
Data set [32] deals with SW-620. Briefly: Effect on apoptosis-mediated morphological changes in human SW620 cells assessed as round cell formation. Type of data set: functional, cell-based.
In data set [33] the test system is SW-620. Briefly: Induction of apoptosis in human SW620 cells assessed as apoptotic cell form at 50 uM relative to control. Type of data set: functional.
Data set [34] concerns SW-620. Briefly: Induction of apoptosis in human SW620 cells assessed as necrosis relative to control. The class given is functional.
The next data set deals with DU-145. Briefly: Antiproliferative activity against human DU145 cells after 48 hrs by MTS assay. The class given is functional, cell-based.

Active and inactive are the calls of the source. The rule behind the calls is not given here.

Consider `COc1cccc2c1C(=O)c1c(O)c3c(c(O)c1C2=O)C[C@@](O)(C(=O)CO)C[C@@H]3O[C@H]1C[C@H](N)[C@H](O)[C@H](C)O1` [DOXORUBICIN], for which the Activity in the data set with SW-620 [1] came out at 58%; in the data set with SW-620 [2] it was 53.7%; in the data set with Mus musculus [3] it was 13.1%.
On to `C=CCc1ccc(O)c(-c2ccc(O)c(CC=C)c2)c1` [HONOKIOL], for which the Activity is given as 100 mm3 in the data set with SW-620 [4]; 150 mm3 with SW-620 [5]; 270 mm3 in the data set on SW-620 [6]; 600 mm3 in the data set with SW-620 [7]; 900 mm3 in the data set on SW-620 [8]; “Non-toxic” with Mus musculus [9].
Regarding `C=CCc1ccc(Oc2cc(CC=C)cc(O)c2O)cc1` [OBOVATOR], the Activity with SW-620 [10] was determined as 277 mm3; in the data set on SW-620 [11], 44.6%; with SW-620 [4] it was 100 mm3; with SW-620 [5], 130 mm3; in the data set with SW-620 [6], 150 mm3; with SW-620 [7], 400 mm3. The Activity in the data set with SW-620 [8] is 750 mm3; with Mus musculus [9], “Non-toxic”; with SW-620 [25] it was 53.6%; with SW-620 [26], 30.4%; in the data set on SW-620 [27], 16%; in the data set on SW-620 [31] it was 23.36%. The results for the Activity in the data set with SW-620 [33] and with SW-620 [34] were below 50% and below 12%, respectively. The inhibition (in general, the relative decrease from the control value, in per cent) at 30 µM in the data set with SW-620 [12] came out at 7%; in the data set with SW-620 [13], 26%; in the data set with SW-620 [14] it was 33%; in the data set on SW-620 [15], 18%. Moreover, the inhibition at 50 µM in the data set on SW-620 [16] was 21%; with SW-620 [17], 57%; in the data set on SW-620 [18], 64%; with SW-620 [19] it was 85%. The inhibition at 100 µM in the data set with SW-620 [20] came out at 36%; in the data set with SW-620 [21], 92%; in the data set with SW-620 [22], 97%; in the data set with SW-620 [23] it was 98%. For the same molecule, the outcome in the data set with HCT-116, in the data set on HT-29, in the data set with DLD-1, in the data set on MCF7, with MDA-MB-231 [24] and in the data set with PC-3 was Active. The result in the data set on K562, with SW-620 [28], with SW-620 [32] and with DU-145 was Active. Further, the outcome in the data set on MDA-MB-231 [29] and in the data set with MDA-MB-231 [30] was inactive.

Source of the values: ChEMBL document CHEMBL1144188, “Obovatol inhibits colorectal cancer growth by inhibiting tumor cell proliferation and inducing apoptosis” (Bioorg Med Chem, 2008).
